# The source made the active and inactive calls.
# How the values were obtained:
# [1] = molecular target: T1, Streptokinase A (Streptococcus pyogenes serotype M1, UniProt P10520); test: viability-normalized secreted streptokinase activity reduction – plasminogen activation absorbance, OD405, dose response (AID 1914); format: functional, Streptococcus pyogenes M1 GAS;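 further: secreted streptokinase activity via plasminogen activation per viability signal from cell pellet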
# T1 sequence (P10520 whole entry): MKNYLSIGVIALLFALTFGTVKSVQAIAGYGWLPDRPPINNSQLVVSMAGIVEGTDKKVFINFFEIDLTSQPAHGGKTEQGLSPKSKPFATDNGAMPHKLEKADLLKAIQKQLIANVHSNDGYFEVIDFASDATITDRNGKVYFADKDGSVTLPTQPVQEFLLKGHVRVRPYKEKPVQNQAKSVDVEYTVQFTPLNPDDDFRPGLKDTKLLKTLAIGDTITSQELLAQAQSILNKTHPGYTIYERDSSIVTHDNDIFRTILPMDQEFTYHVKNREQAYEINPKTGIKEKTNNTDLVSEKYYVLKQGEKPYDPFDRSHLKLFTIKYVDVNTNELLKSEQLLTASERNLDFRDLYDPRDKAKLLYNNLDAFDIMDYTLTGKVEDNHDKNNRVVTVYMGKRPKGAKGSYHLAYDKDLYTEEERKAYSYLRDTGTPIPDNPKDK
# [2] = molecular target: T2, Tyrosine-protein phosphatase non-receptor type 7 (Homo sapiens, UniProt P35236); test: inhibition of hematopoietic tyrosine phosphatase HePTP – biochemical, set 2, SAR follow-up (AID 449736); format: functional
# T2 sequence (P35236 whole entry): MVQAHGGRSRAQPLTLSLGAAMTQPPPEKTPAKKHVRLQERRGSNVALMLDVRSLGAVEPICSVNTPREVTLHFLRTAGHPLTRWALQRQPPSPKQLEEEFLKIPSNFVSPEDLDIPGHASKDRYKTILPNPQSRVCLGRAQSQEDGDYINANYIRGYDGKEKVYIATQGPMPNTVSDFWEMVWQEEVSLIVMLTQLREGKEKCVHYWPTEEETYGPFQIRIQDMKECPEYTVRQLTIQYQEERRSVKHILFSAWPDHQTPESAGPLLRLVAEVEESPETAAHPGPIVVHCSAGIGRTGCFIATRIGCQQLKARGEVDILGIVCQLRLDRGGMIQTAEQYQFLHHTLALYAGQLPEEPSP
# [3] = molecular target: G-protein coupled receptor 55 (Homo sapiens, UniProt Q9Y2T6); test: blockers of GPR55 signalling, imaged – imaging, image-based, counter-screen for GPR35 antagonist project, SAR follow-up (AID 2397); format: functional
# Sequence of G-protein coupled receptor 55 (Q9Y2T6 whole entry): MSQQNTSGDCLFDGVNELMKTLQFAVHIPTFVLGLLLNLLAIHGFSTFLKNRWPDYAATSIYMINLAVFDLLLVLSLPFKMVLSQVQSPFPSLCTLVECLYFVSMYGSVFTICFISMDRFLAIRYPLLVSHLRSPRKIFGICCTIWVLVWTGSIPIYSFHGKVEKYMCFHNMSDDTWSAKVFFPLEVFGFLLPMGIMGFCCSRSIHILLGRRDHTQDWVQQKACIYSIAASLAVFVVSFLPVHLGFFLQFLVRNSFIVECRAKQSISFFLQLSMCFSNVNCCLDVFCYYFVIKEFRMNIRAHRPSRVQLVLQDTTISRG
# [4] = molecular target: T3, Tyrosine-protein phosphatase non-receptor type 22 (Homo sapiens, UniProt Q9Y2R2); test: SAR LYP1 Fluorescent Assay using OMFP substrate for In Vitro dose response studies - Set 3. [Related pubchem assays (depositor defined):AID1779, AID1784, AID2140, AID2686]; format: functional
# T3 sequence (Q9Y2R2 whole entry): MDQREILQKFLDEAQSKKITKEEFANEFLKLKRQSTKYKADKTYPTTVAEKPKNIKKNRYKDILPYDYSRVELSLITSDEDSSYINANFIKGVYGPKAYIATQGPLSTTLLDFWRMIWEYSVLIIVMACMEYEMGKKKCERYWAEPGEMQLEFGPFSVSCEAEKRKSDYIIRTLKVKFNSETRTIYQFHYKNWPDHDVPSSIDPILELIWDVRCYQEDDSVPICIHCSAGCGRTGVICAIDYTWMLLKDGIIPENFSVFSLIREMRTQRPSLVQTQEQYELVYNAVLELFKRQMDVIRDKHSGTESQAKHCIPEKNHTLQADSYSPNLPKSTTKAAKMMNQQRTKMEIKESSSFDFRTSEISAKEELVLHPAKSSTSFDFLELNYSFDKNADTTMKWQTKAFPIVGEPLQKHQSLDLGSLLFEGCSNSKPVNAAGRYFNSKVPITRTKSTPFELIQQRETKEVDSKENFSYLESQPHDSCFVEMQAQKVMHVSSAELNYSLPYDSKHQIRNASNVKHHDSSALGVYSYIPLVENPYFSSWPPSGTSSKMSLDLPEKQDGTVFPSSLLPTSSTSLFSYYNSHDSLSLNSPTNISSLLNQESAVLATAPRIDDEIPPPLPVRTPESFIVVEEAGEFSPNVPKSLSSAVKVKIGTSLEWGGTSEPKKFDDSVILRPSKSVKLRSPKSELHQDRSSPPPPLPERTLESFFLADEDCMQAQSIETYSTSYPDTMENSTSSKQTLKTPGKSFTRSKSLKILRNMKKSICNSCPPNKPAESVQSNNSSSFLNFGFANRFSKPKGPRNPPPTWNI
# [5] = luciferase reporter signal suppression in cells – H4 neuroglioma cells, luminescence, dose response (AID 1990); format: functional, cell-based
# [6] = system: Streptococcus; test: GAS UMAA2166 growth inhibition – luminescence, BacTiterGlo, counter-screen for streptokinase expression inhibitor project, dose response (AID 1915); format: functional, organism-based;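 further: potency for reduction of bacterial viability or growth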
# [7] = molecular target: Tyrosine-protein phosphatase non-receptor type 12 (Homo sapiens, UniProt Q05209); test: SAR Selectivity Analysis of small molecule inhibitors of PEST using pCAP in a fluorescence assay. [Related pubchem assays (depositor defined):AID1779, AID1784, AID2135]; format: functional
# Sequence of Tyrosine-protein phosphatase non-receptor type 12 (Q05209 whole entry): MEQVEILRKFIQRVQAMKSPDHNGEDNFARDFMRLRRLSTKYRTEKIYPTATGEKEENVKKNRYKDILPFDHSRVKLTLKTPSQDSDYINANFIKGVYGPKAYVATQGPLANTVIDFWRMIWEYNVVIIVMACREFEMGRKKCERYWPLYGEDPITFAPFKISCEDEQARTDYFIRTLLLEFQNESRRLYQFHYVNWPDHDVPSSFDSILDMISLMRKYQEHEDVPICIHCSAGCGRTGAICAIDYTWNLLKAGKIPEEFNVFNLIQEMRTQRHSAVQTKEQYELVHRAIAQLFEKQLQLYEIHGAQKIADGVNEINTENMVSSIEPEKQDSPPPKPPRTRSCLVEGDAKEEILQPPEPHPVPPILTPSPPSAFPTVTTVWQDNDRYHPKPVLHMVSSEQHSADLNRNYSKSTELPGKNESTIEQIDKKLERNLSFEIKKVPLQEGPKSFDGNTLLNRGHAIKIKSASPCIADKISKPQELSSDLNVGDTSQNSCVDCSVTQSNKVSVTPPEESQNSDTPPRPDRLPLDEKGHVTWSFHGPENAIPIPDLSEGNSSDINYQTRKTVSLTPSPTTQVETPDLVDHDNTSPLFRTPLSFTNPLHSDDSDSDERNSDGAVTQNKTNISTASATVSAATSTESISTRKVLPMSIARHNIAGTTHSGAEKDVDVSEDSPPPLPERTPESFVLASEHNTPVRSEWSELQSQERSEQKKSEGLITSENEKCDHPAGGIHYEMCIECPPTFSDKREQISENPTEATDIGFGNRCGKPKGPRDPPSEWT
# [8] = system: Streptococcus sp. 'group A'; test: Streptococcus pyogenes SK(-)GAS viability under kanamycin – luminescence, BacTiterGlo, confirmation, counter-screen for streptokinase expression inhibitor project, dose response (AID 1900); format: functional, organism-based
# [9] = Luminescence Cell-Based Dose Response HTS to Identify Inhibitors of 5'UTR Stem-Loop Driven Prion Protein mRNA Translation in H4 Neuroglioblastoma Cells. [Related pubchem assays: 1827 (Project Summary), 1813 (Primary HTS)]; format: functional
# [10] = molecular target: T4, G-protein coupled receptor 35 (Homo sapiens, UniProt Q9HC97); test: inhibition of zaprinast-stimulated GPR35 beta-arrestin translocation – imaging, U2OS, beta-arrestin-GFP, zaprinast agonist, primary screen (AID 2058); format: functional;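 further: antagonist potency meaning inhibition of agonist-induced arrestin redistribution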
# T4 sequence (Q9HC97 whole entry): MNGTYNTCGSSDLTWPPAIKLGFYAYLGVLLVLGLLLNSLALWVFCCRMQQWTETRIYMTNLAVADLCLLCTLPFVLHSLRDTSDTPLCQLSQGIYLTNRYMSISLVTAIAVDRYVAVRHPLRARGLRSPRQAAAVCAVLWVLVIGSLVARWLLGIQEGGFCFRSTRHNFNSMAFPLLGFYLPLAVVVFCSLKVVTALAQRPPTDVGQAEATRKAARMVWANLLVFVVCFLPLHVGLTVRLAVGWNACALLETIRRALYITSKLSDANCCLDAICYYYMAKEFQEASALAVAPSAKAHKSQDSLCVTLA
# [11] = alpha-synuclein stem-loop luciferase translation blockers – H4 neuroglioma cells, luminescence, confirmation (AID 1988); format: functional, cell-based
# [12] = molecular target: T4, G-protein coupled receptor 35; test: SAR Analysis for the identification of Selective Antagonists of ERK1/2 Activity in GPR35-Overexpressing U2OS Cells. [Related pubchem assays: 2079, 2058 ]; format: functional, cell-based
# [13] = molecular target: T5, Kappa-type opioid receptor (Homo sapiens, UniProt P41145); test: SAR analysis of small molecule agonists of the kappa opioid receptor via a luminescent beta-arrestin assay. [Related pubchem assays (depositor defined):AID1777, AID1786, AID1966, AID2133, AID2136, AID2348, AID2352, AID2357, AID2359, AID2370, AID2420, AID2478, AID2491, AID2492, AID2493, AID2497, AID2498, AID2500, AID449737, AID488822, AID488842]; format: functional
# T5 sequence (P41145 whole entry): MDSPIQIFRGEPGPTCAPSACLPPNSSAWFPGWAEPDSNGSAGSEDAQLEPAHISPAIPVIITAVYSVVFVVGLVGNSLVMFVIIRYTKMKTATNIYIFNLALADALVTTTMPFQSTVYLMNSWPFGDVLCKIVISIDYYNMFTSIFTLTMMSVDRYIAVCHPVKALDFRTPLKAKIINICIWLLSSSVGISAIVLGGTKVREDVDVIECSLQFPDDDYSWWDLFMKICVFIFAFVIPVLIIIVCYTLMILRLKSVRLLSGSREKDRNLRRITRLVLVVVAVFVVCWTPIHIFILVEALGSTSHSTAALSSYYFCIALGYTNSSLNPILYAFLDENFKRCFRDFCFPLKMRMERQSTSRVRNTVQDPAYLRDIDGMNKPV
# [14] = molecular target: T6, Delta-type opioid receptor (Homo sapiens, UniProt P41143); test: DOR agonists, SAR follow-up, image-based (AID 2370); format: functional
# T6 sequence (P41143 whole entry): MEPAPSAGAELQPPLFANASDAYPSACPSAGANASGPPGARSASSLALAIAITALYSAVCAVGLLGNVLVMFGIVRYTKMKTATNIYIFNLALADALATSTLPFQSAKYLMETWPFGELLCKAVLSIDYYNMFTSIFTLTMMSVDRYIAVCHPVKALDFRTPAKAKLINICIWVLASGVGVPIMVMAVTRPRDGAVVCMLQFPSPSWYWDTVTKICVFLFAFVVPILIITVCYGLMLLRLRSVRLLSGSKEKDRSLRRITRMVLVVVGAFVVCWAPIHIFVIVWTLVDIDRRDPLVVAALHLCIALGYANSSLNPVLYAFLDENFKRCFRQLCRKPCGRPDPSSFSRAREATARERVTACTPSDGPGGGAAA
# [15] = molecular target: T5, Kappa-type opioid receptor; format: functional
# [16] = molecular target: T7, Mu-type opioid receptor (Homo sapiens, UniProt P35372); test: mu opioid receptor activators, image-based, SAR follow-up (AID 2352); format: functional
# T7 sequence (P35372 whole entry): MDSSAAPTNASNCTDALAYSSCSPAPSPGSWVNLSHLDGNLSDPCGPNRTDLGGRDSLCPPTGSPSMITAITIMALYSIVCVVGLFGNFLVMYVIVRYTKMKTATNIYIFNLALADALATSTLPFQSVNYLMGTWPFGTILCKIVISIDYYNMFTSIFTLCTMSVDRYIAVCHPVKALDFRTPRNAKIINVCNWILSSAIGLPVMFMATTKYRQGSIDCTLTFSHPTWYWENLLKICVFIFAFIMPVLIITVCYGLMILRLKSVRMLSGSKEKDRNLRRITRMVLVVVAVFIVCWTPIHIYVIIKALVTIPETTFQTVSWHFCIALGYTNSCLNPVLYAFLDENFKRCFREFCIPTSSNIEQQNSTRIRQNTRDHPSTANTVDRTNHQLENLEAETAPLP
# [17] = molecular target: T5, Kappa-type opioid receptor; test: kappa opioid receptor blockers, image-based, SAR follow-up (AID 2348); format: functional
# [18] = molecular target: T7, Mu-type opioid receptor; test: mu opioid receptor blockers – image-based, SAR follow-up (AID 2420); format: functional;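 further: compounds added before stimulation of receptor with agonist DAMGO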
# [19] = molecular target: T5, Kappa-type opioid receptor; test: kappa opioid receptor activation potency – imaging, image-based, SAR follow-up (AID 2359); format: functional
# [20] = molecular target: T6, Delta-type opioid receptor; test: delta opioid receptor blockers – image-based, SAR follow-up (AID 2357); format: functional
# [21] = molecular target: T5, Kappa-type opioid receptor; format: functional; remark: listed apart in the source
# [22] = molecular target: T6, Delta-type opioid receptor; test: HTS Image-Based Screen for Antagonists of the DOR Receptor. [Related pubchem assays (depositor defined):AID1777, AID1785, AID1786, AID2133]; format: functional
# [23] = molecular target: T6, Delta-type opioid receptor; test: HTS Image-Based Screen for Agonists of the DOR Receptor. [Related pubchem assays (depositor defined):AID1777, AID1786, AID2133]; format: functional
# [24] = molecular target: T7, Mu-type opioid receptor; test: HTS Image-Based Screen for Agonists of the MOR Receptor. [Related pubchem assays (depositor defined):AID1777, AID1785, AID1786, AID2133]; format: functional
# [25] = molecular target: T8, Nucleotide-binding oligomerization domain-containing protein 1 (Homo sapiens, UniProt Q9Y239); test: SAR analysis of compounds that inhibit NOD1 - Set 3. [Related pubchem assays (depositor defined):AID1566, AID1575, AID1578, AID1849, AID1852, AID2333, AID2335, AID2466]; format: functional
# T8 sequence (Q9Y239 whole entry): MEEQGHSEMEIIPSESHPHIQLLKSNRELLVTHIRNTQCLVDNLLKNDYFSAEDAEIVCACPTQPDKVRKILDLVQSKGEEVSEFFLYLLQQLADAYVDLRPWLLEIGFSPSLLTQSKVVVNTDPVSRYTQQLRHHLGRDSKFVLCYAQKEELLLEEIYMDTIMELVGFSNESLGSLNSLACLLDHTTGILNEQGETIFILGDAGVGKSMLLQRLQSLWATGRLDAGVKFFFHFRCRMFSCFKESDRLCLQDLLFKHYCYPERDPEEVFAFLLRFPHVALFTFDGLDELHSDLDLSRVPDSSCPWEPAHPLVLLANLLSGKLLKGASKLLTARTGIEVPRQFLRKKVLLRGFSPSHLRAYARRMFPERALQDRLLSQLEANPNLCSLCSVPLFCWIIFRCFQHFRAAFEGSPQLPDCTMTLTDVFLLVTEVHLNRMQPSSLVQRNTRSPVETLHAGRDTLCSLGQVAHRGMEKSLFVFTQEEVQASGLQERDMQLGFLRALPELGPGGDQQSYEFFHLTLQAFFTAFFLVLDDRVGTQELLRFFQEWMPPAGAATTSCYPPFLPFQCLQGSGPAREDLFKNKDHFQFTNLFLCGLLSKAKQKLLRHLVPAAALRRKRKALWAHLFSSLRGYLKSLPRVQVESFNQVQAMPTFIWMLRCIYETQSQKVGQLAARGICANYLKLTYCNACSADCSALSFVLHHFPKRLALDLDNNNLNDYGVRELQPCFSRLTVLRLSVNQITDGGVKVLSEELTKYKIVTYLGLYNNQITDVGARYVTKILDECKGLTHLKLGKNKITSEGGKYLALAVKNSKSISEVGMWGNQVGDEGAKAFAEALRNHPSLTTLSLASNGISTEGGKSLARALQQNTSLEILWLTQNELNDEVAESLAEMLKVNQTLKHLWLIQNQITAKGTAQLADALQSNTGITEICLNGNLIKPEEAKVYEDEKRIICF
# [26] = molecular target: Nucleotide-binding oligomerization domain-containing protein 2 (Homo sapiens, UniProt Q9HC29); test: inhibition of MDP-driven NOD2 NF-kB reporter – cell-based, set 3, SAR follow-up (AID 2799); format: functional
# Sequence of Nucleotide-binding oligomerization domain-containing protein 2 (Q9HC29 whole entry, the tested form may be a part): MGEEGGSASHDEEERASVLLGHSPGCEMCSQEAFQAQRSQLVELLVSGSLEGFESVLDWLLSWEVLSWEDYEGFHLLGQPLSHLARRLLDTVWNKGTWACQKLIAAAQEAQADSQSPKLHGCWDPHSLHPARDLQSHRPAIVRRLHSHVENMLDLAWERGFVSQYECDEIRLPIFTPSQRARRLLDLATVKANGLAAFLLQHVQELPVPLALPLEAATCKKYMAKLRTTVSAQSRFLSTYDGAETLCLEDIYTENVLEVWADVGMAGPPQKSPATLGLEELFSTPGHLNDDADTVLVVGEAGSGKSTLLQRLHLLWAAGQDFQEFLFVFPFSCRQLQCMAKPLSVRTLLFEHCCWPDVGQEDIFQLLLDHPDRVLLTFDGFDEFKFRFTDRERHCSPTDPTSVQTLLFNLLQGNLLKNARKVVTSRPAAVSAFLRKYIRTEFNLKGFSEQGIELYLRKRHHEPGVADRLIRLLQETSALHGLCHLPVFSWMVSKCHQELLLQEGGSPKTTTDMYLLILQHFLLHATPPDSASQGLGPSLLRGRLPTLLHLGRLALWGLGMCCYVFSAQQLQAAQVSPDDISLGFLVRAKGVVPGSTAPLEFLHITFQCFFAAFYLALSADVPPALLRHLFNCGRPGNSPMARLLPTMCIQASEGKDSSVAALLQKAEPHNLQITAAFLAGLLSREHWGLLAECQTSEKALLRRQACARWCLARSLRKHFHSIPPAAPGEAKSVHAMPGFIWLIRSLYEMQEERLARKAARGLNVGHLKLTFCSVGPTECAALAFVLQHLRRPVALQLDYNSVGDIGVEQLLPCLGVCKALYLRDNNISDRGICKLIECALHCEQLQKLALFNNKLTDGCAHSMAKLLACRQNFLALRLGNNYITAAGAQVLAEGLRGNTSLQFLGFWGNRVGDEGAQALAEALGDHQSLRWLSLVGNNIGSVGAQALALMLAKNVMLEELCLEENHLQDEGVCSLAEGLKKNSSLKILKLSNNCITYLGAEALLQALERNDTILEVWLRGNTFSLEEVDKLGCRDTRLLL
# [27] = molecular target: Tumor necrosis factor (Homo sapiens, UniProt P01375); test: analog potency on TNFa NF-kB signaling – cell-based, set 3, SAR follow-up (AID 2801); format: functional
# Sequence of Tumor necrosis factor (P01375 whole entry): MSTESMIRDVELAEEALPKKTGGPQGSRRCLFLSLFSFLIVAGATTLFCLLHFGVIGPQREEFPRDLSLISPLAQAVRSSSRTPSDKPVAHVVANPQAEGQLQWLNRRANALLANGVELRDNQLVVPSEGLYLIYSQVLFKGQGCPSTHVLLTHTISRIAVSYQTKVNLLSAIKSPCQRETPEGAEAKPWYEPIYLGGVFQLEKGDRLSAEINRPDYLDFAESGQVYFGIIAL
# [28] = system: HEK293; test: SAR analysis of compounds that are cytotoxic to HEK293 - Set 3. [Related pubchem assays (depositor defined):AID1575, AID1578, AID1848, AID1849, AID2001, AID2333, AID2334, AID2335, AID2337, AID2469]; format: functional, cell-based; conditions: Homo sapiens
# [29] = molecular target: Lysine-specific demethylase 4A (Homo sapiens, UniProt O75164); test: inhibition of JMJD2A H3K9me3 demethylation – biochemical, DELFIA europium, cherry-picked samples, selectivity assay for GASC-1 inhibitor project, dose response (AID 488840)
# Sequence of Lysine-specific demethylase 4A (O75164 whole entry): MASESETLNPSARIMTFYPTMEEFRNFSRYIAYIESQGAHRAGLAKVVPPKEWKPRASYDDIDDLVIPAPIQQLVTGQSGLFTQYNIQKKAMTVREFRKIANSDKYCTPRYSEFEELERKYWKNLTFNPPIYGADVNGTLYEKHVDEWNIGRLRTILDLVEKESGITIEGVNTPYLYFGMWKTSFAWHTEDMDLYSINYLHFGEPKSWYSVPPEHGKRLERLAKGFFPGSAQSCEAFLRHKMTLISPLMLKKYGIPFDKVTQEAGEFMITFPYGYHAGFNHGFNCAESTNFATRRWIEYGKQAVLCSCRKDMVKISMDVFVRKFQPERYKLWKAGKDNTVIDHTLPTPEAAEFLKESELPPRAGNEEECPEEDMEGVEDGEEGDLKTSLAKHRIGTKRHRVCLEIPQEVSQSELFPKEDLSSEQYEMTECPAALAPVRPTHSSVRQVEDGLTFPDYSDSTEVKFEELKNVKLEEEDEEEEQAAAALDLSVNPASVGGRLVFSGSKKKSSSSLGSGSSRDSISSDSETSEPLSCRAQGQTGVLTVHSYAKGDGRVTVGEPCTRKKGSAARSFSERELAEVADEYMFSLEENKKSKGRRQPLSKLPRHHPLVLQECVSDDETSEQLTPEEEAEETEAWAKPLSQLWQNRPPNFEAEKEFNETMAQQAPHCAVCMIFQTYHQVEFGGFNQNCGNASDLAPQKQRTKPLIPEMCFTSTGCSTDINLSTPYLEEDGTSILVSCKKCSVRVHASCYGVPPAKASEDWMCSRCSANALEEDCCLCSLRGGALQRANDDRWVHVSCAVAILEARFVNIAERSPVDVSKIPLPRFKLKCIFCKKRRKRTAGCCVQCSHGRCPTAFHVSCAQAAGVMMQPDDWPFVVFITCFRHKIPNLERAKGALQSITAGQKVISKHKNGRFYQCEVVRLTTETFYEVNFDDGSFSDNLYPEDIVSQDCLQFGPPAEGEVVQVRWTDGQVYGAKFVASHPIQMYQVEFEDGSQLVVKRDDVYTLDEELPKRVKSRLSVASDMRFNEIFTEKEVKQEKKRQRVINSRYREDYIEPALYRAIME
smiles,measurement,setting,value
CCc1ccc(/C=C2\SC(=S)N(CCCC(=O)Nc3ccc(C(=O)O)cc3)C2=O)cc1,EC50,[1],> 150 µM (not active)
same,IC50,[2],0.581 µM (active)
same,IC50,[3],17.3 µM (inactive)
same,IC50,[4],76.8 µM (active)
same,EC50,[5],0.248 µM (active)
same,EC50,[6],> 150 µM (not active)
same,IC50,[7],9.28 µM (active)
same,EC50,[8],7.29 µM (active)
same,EC50,[9],7.61 µM (active)
same,IC50,[10],< 0.5 µM (active)
same,EC50,[11],3.67 µM (active)
same,IC50,[12],0.636 µM (active)
C(=C\c1ccccc1)/CSc1nnc(-c2ccccn2)n1Cc1ccco1,EC50,[13],2.22 µM (active)
same,EC50,[14],> 32 µM (inactive)
same,EC50,[15],3.18 µM
same,EC50,[16],> 32 µM (inactive)
same,IC50,[17],> 32 µM (inactive)
same,IC50,[18],> 32 µM (inactive)
same,EC50,[19],1.43 µM (active)
same,IC50,[20],> 32 µM (inactive)
same,EC50,[21],5.22 µM
same,IC50,[22],> 32 µM (inactive)
same,EC50,[23],> 32 µM (inactive)
same,EC50,[24],> 32 µM (inactive)
Nc1nc2ccccc2n1S(=O)(=O)c1ccc(Cl)c(Cl)c1,IC50,[25],0.529 µM (active)
same,IC50,[26],> 20 µM (inactive)
same,IC50,[27],> 20 µM (inactive)
same,IC50,[28],> 20 µM (inactive)
Cc1ccc(S(=O)(=O)Nc2ccc3c(c2)CC(=O)N([C@H](C)CO)C[C@@H](C)[C@H](CN(C)S(=O)(=O)c2ccccc2)O3)cc1,AC50,[29],> 60 µM (inactive)
